Assay results taken from PMC3796549 (PLoS ONE, 2013).
Read-outs that look alike come from different tables or passages of the source.

Tests used:
PtpB from Mtb = molecular target: T1, PtpB from Mtb (Mycobacterium tuberculosis, UniProt P96830); experiment: biochemical; format: biochemical
T1 construct: made in house

human PTP1B = molecular target: T2, human PTP1B (Homo sapiens, UniProt P18031); experiment: biochemical; conditions: for IC50: pNPP substrate, mean ± SD, 3 experiments
T2 construct: made in house
T2 sequence (P18031 1-435): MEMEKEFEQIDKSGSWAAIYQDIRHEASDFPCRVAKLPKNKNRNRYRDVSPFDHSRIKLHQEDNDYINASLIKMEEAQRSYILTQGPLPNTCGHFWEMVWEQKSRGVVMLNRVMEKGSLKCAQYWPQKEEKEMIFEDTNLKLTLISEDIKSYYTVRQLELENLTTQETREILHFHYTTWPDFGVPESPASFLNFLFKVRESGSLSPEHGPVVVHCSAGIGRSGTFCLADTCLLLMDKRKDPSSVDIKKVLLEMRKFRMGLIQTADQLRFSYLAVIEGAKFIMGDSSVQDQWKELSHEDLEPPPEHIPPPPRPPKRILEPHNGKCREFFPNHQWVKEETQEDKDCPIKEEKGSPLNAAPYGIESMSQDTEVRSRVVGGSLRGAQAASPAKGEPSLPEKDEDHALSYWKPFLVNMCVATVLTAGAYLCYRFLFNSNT

PtpB [1] = molecular target: T3, PtpB (Mycobacterium tuberculosis, UniProt P96830); experiment: biochemical; conditions: for Ki: pNPP 0.2-12.8 mM, mean ± SD; for Type of inhibition: with respect to substrate pNPP
T3 construct: made in house
T3 sequence (P96830 1-276): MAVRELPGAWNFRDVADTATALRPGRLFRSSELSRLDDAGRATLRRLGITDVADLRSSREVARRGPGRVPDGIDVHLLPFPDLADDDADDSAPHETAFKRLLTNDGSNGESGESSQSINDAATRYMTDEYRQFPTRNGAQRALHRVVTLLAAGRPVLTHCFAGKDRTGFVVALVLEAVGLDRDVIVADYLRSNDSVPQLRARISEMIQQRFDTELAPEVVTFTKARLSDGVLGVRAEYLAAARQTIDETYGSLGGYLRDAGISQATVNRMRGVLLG

trypsin = molecular target: T4, trypsin (Sus scrofa, UniProt P00761); experiment: Inhibition of trypsin by the inhibitor itself; format: biochemical
T4 construct: purchased Promega
T4 sequence (P00761 9-231): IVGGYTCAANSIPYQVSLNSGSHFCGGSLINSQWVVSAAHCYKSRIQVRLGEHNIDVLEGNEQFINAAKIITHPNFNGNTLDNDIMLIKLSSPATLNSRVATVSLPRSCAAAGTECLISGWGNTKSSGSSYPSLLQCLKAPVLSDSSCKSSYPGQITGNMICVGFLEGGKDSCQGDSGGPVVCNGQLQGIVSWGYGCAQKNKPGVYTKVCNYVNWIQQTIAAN

PtpB [2] = molecular target: T3, PtpB; conditions: 300 µM inhibitor, PtpB 5 µM, 3 hours 37 °C
[3] = pNPP substrate, 37 °C, imidazole pH 7.0, mean ± SD, 3 experiments

T1 sequence (P96830 1-276): as the sequence (P96830 1-276) above

Row | SMILES | IC50 (PtpB from Mtb; [3]) [µM] | IC50 (human PTP1B) [µM] | IC50 / Ki (PtpB [1]) | Ki (PtpB [1]) [µM] | Type of inhibition (PtpB [1]) | SI (Selectivity index) (human PTP1B) | further results
1 | O=C(/C=C/c1ccc(O)c(O)c1)O[C@@H]1C[C@@](OC(=O)/C=C/c2ccc(O)c(O)c2)(C(=O)O)C[C@@H](O)[C@@H]1O [Cyn, cynarin] | > 100 | – | – | – | – | – | PtpB enzymatic inhibition (in words) (PtpB from Mtb; up to 100 µM): not active
2 | CC(C)=CCc1c(C)c(CC=C(C)C)c2c(c1O)C(=O)c1c(O)cc(O)c(CC=C(C)C)c1C2 [PirIII, 1,3,8-trihydroxy-6-methyl-4,5,7-triprenylanthrone] | 5.4 ± 0.6 | 11.8 ± 3.5 | 0.8 | 6.6 ± 2.7 | Non-competitive | – | –
3 | CC(C)=CCc1c(O)ccc(C(=O)[C@H]2[C@@H](c3c(O)cc(/C=C/c4ccc(O)cc4O)cc3O)C=C(C)C[C@@H]2c2ccc(O)cc2O)c1O [KuwE, Kuwanol E] | 1.9 ± 0.5 | 9.6 ± 2.6 | 1.2 | 1.6 ± 0.1 | Competitive | 5.1 | Inhibition of trypsin (trypsin): not able to inhibit trypsin; Protection of PtpB catalytic site from proteolytic cleavage by trypsin (fragments m/z 1953 and m/z 2224) (PtpB [2]): protecting it from the proteolytic cleavage by trypsin
4 | O[C@@H]1OC[C@H](Cc2ccc3c(c2)OCO3)[C@H]1Cc1ccc2c(c1)OCO2 [α-Cub, α-cubebin] | – | – | – | – | – | – | PtpB enzymatic inhibition (in words) (PtpB from Mtb): not active; IC50 (PtpB from Mtb; pH 7): > 100 µM
5 | O=C(O)/C=C/c1ccc(OC2O[C@H](CO)[C@@H](O)[C@H](O)[C@H]2O)c(O)c1 (some centres unmarked) [Caf, 4-O-glucosyl caffeic acid] | > 100 | – | – | – | – | – | PtpB enzymatic inhibition (in words) (PtpB from Mtb; up to 100 µM): not active
6 | C[N+](C)(C)CCc1c[nH]c2ccc(O)cc12.[I-] [Buf-I, bufotenine CH3I] | > 100 | – | – | – | – | – | PtpB enzymatic inhibition (in words) (PtpB from Mtb; up to 100 µM): not active
7 | COc1c(C2COc3cc(O)c(CC=C(C)C)c(O)c3C2=O)ccc(O)c1CC=C(C)C (centres unmarked) [M2, isosophoranone] | 19.8 ± 2.3 | – | – | – | – | – | –
8 | CC(C)=CCc1c(C)c(CC=C(C)C)c2c(c1O)C(=O)c1c(O)cc(O)c(CC=C(CO)CO)c1C2 [∆3, 1,3,8-trihydroxy-6-methyl-5,7-diprenyl-4-γ,γ’dihydroxyprenyl-anthrone] | 26.7 ± 0.6 | 14.7 ± 2.1 | 2.0 | 13.4 ± 1.5 | Non-competitive | 0.6 | –
9 | COc1c(C2COc3cc(O)c(CCC(C)C)c(O)c3C2=O)ccc(O)c1CCC(C)C (centres unmarked) [M2H, tetra-hydro-isosophoranone] | 69.4 ± 4.5 | – | – | – | – | – | –
10 | CC(C)=CCC/C(C)=C/Cc1cc(CCC(=O)c2c(O)cc(O)c(CC=C(C)C)c2O)ccc1O [Ega1, 4,2’,4’,6’-tetrahydroxy-3’-prenyl-3-geranyldihydrochalcone] | 13.4 ± 2.6 | 20.9 ± 2.8 | 0.9 | 14.5 ± 2.3 | Non-competitive | 1.6 | –
11 | COc1ccc(CCC(=O)c2c(O)cc(OC)c(CC=C(C)C)c2OC)cc1CC=C(C)CCC=C(C)C [59-triMe, 4,2’,4’-trimethoxy-6’-hydroxy,3’-prenyl-3-geranyldihydrochalcone] | > 100 | – | – | – | – | – | –
12 | COc1c(C)c(OC(C)=O)c2c(c1-c1c(OC)c(C)c(OC(C)=O)c3c1C(=O)c1cc(C)cc(OC(C)=O)c1C3=O)C(=O)c1cc(C)cc(OC(C)=O)c1C2=O [Ac3, tetra-acetyl-trachypone] | 33.2 ± 4.9 | 31.2 ± 2.7 | 1.9 | 17.1 ± 4.5 | Competitive | 0.9 | –
13 | COc1ccc([C@@H]2CC(=O)c3c(O)cc(O[C@@H]4O[C@H](CO[C@@H]5O[C@@H](C)[C@H](O)[C@@H](O)[C@H]5O)[C@@H](O)[C@H](O)[C@H]4O)cc3O2)cc1O [Hesp, hesperidin] | > 100 | – | – | – | – | – | PtpB enzymatic inhibition (in words) (PtpB from Mtb; up to 100 µM): not active
14 | COc1c(C)c(O)c2c(c1-c1c(OC)c(C)c(O)c3c1C(=O)c1cc(C)cc(O)c1C3=O)C(=O)c1cc(C)cc(O)c1C2=O [compound 6016, trachypone] | 19.2 ± 6.7 | 7.1 ± 1.4 | 1.7 | 11.5 ± 1.7 | Competitive | 0.4 | –
